According to PubChem BioAssay AID463074 (Broad Institute, 2010):

System: HMLE_sh_eGFP viability, CellTiter-Glo luminescence, 72 h
Experiment: cytotoxicity in HMLE control line with eGFP shRNA, dose response, counter-screen for HMLE_sh_ECad selective toxicity project, cell-based, HMLE_sh_eGFP, luminescence (AID 463074);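 also: counterscreen control line to flag general toxicity for the HMLE_sh_ECad screen; potency for loss of viability as luminescence drops below DMSO wells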

Compared with `CSc1nc2sc3c(c2c(=O)n1CC(C)C)CC(C)(C)OC3`, `CCC1(C)Cc2c(sc3nc(SC)n(Cc4ccccc4)c(=O)c23)CO1` (stereo not drawn) is higher in AC50: under 0.16 µM for the first, 2.77 µM for the second.

Compared with `C[C@]12CC[C@H]3[C@@H](CC[C@]4(O)C[C@@H](O)CC[C@]34C=O)[C@@]1(O)CC[C@@H]2C1=CC(=O)OC1`, `C[C@]12CC[C@H](O)C[C@H]1CC[C@@H]1[C@@H]2CC[C@]2(C)[C@@H](C3=CC(=O)OC3)CC[C@]12O` is 1.9-fold lower in AC50: 0.446 µM for the first, 0.234 µM for the second.

`CN(C)CCOc1ccc(-c2c(-c3ccccc3)sc3ccccc23)cc1` and `c1ccc2c(-c3ccc(OCCN4CCCCC4)cc3)c(-c3ccsc3)sc2c1` are within 1.5-fold of each other in AC50: 2.53 µM for the first, 2.72 µM for the second.

`CN1CCN(C2Cc3ccccc3Sc3cc(C(F)(F)F)ccc32)CC1` (stereo not drawn) and `OCCN1CCN(CCCN2c3ccccc3Sc3ccc(C(F)(F)F)cc32)CC1` are within 1.5-fold of each other in AC50: 6.9 µM for the first, 4.67 µM for the second.

`O=[N+]([O-])c1cc(S(=O)(=O)N2CCCCCC2)ccc1F` and `COc1ccc(Nc2nc(N)c([N+](=O)[O-])c(NC3CCCCC3)n2)cc1` are within 1.5-fold of each other in AC50: 3.66 µM for the first, 4.58 µM for the second.

Compared with `O=C(CC1Nc2ccccc2NC1=O)Nc1ccccc1` (stereo not drawn), `O=C(NCCc1c[nH]c2ccccc12)C(=O)c1c[nH]c2ccccc12` is 6.5-fold higher in AC50: 1.04 µM for the first, 6.75 µM for the second.

Compared with `CCn1cc(C(=O)N[C@H](C)c2ccccc2)c(=O)c2cc(F)c(N3CCN(C)CC3)cc21`, `OC(COc1cccc2ccccc12)CN1CCN(c2ccc(Cl)cc2)CC1` (stereo not drawn) is 2-fold higher in AC50: 3.5 µM for the first, 7.09 µM for the second.

`COc1ccc2nc(NC(=O)c3cccc(-c4cc5ccccc5oc4=O)c3)sc2c1` and `COc1cccc(/C=N/NC(=O)c2ccc(-c3ccccc3)cc2)c1O` are within 1.5-fold of each other in AC50: 4.88 µM for the first, 3.33 µM for the second.

`Cc1cc2oc(=O)c(CC(=O)NCCCN(C)C)c(C)c2c2occ(C(C)(C)C)c12` and `Cc1ccc2sc(N(CCCN(C)C)C(=O)c3ccc(S(=O)(=O)N(C)C4CCCCC4)cc3)nc2c1C` are within 1.5-fold of each other in AC50: 2.85 µM for the first, 3.63 µM for the second.

First: O=C(/C(N=Nc1cccc(C(F)(F)F)c1)=C(/O)c1cccs1)C(F)(F)F
Second: O=C(CSC1=NNC(c2ccccn2)S1)Nc1ccc(C(F)(F)F)cc1 (stereo not drawn)
The AC50 of the first is 2-fold lower: 2.17 µM for the first, 4.27 µM for the second.

Compared with `O=C(Cc1ccc(Cl)c(Cl)c1)Nc1ccc(SC(F)F)cc1`, `CNC(=O)c1cc(Oc2ccc(NC(=O)Nc3ccc(Cl)c(C(F)(F)F)c3)cc2)ccn1` is 1.6-fold lower in AC50: 3.93 µM for the first, 2.39 µM for the second.

Going from `O=C1C=CC(=O)N1c1ccc(OC(F)F)cc1` to `Cc1cc(N2C(=O)C=CC2=O)c([N+](=O)[O-])cc1C`, the AC50 falls from 11.9 µM to 5.88 µM (2-fold).

`O=S(=O)(c1ccccc1)N(CC(O)Cn1c2ccccc2c2ccccc21)c1ccccc1` (stereo not drawn) and `Cc1ccccc1N=C1SC(CC(=O)Nc2ccc3ccccc3c2)C(=O)N1Cc1ccccn1` (stereo not drawn) are within 1.5-fold of each other in AC50: 6.55 µM for the first, 6.02 µM for the second.

First: COc1ccccc1/C=C1\SC(=O)N(CCC(=O)NCCCn2ccnc2)C1=O
Second: O=C(NCCCSc1ccccc1)c1cc(Br)ccc1O
The AC50 of the first is 3.3-fold higher: 19.5 µM for the first, 5.85 µM for the second.

Going from `Cn1cncc1C#Cc1c(-c2ccsc2)sc2ccccc12` to `CCC(C)n1c(-c2cccs2)nc2nc3ccccc3nc21` (stereo not drawn), the AC50 rises from 7.26 µM to 15.5 µM (2.1-fold).

First: CC1(C)CC[C@@]2(C(=O)O)C(C1)C1=CCC3[C@@]4(C)CC[C@H](O)C(C)(C)C4CC[C@@]3(C)[C@]1(C)C[C@H]2O (stereo partly drawn)
Second: CC1(C)C=C2[C@H]3CC[C@@H]4[C@@]5(C)CCC(=O)C(C)(C)[C@@H]5CC[C@@]4(C)[C@]3(C)CC[C@@]2(C(=O)O)CC1
The AC50 of the first is 2.2-fold higher: 7.84 µM for the first, 3.58 µM for the second.

Compared with `Cc1ccc(C2C(/C=C3/SC(=S)NC3=O)=C(c3cccs3)Oc3ccccc32)cc1` (stereo not drawn), `O=[N+]([O-])c1ccc(-c2nc(Nc3cccc(O)c3)c3ccccc3n2)cc1` is 3.2-fold higher in AC50: 1.21 µM for the first, 3.89 µM for the second.

Going from `Cc1cc(=O)[nH]c(N/N=C/c2ccc(-c3ccc(F)cc3)o2)n1` to `COC(=O)Nc1nc2ccc(-c3n[nH]c(=O)c4ccccc34)cc2[nH]1`, the AC50 falls from 18.1 µM to 1.88 µM (9.6-fold).

First: Clc1ccc(COC(Cn2ccnc2)c2ccc(Cl)cc2Cl)c(Cl)c1 (stereo not drawn)
Second: Cc1ccc(NC(=S)N/N=C/c2c(Cl)cccc2Cl)c(C)c1
The AC50 of the first is 18-fold higher: 6.47 µM for the first, 0.369 µM for the second.

Going from `Cc1ccc(Nc2cc(C)c3ccc(O)cc3n2)cc1C` to `COc1cc(Nc2nc(-c3ccccc3)c3cc(C)ccc3n2)cc(OC)c1OC`, the AC50 falls from 9.16 µM to 5.17 µM (1.8-fold).

`Cc1ccc(C(=O)/C=C/c2cc(Br)cc(Br)c2O)o1` and `COc1ccc2c(c1)C(=O)[C@H](O)[C@@H](c1ccc(OC)c(Br)c1)O2` are within 1.5-fold of each other in AC50: 3.57 µM for the first, 3.61 µM for the second.

First: CCc1cc(-c2n[nH]c(C)c2-c2ccccc2Cl)c(O)cc1OC
Second: C=C(C)COc1ccc(-c2[nH]ncc2Oc2ccc(OC)cc2)c(O)c1
The AC50 of the first is 1.6-fold lower: 3.77 µM for the first, 5.99 µM for the second.

Compared with `Cc1ccn2c(NCc3ccccc3)c(-c3cccc(SC4CCCCC4)c3)nc2c1`, `CCCCCCSc1ccc(-c2nc3ccccn3c2NCCCC)cc1` is 1.6-fold higher in AC50: 4.45 µM for the first, 6.98 µM for the second.

Compared with `CCN(c1ccc(NC(=O)CCc2nc3sc4c(c3c(=O)[nH]2)CCCC4)cc1)C(C)C`, `Cc1ccc(-n2nc(C)c3c(C)c(CCC(=O)Nc4ccc(CN5CCCC5)cc4)c(C)nc32)cc1` is 2.5-fold lower in AC50: 9.45 µM for the first, 3.79 µM for the second.

Compared with `CCCCCCC(C)(C)c1ccc([C@@H]2C[C@H](O)CC[C@H]2CCCO)c(O)c1`, `CC(C)[C@@H]1CC[C@@H](C)c2c(-c3ccccc3)n[nH]c21` is 1.8-fold higher in AC50: 3.5 µM for the first, 6.38 µM for the second.

First: CC(C)=CCc1c(O)ccc(C(=O)Cc2ccccc2)c1O
Second: O=c1cc(-c2ccccc2)[nH]n1-c1ccc([N+](=O)[O-])cc1
The AC50 of the first is 1.9-fold lower: 4.41 µM for the first, 8.23 µM for the second.

`CC12CCC(C/C1=N\N=C1\NC(=O)/C(=C\c3ccc(Cl)cc3)S1)C2(C)C` (stereo not drawn) was tested, and the AC50 was 3.25 µM.
